Key:
human IgE [1] = experiment: ELISA of human IgE binding, plasma from patient #669; details: patient #669 plasma
Protocol: Corning assay plates (#25882-96) were coated with 10 μg/ml of each coating antigen (i.e., TRFP, chain 1 (recombinant chain 1 of TRFP), chain 2 (recombinant chain 2 of TRFP), peptide XYZ, peptide XZY, peptide YXZ, peptide YZX, peptide ZXY and peptide ZYX) listed in FIG. 34 at 50 μl/well and incubated overnight at 4° C. The coating antigens were removed and the wells were blocked with 0.5% gelatin in PBS, 200 μl/well for 2 hours at room temperature. Plasma from patient #669 was serially diluted with PBS-Tween 20 (PBS with 0.05% nonionic detergent Tween-20 Sigma, St. Louis Mo.) and 100 μl/well was added and incubated overnight at 4° C. (plasma dilutions are tested in duplicate). The second antibody (biotinylated goat anti-Human IgE, 1:1000, Kirkegaard & Perry Laboratories Inc. Gaithersburg, Md.), was added at 100 μl/well for one hour at room temperature. This solution was removed and streptavidin-HRPO, 1:10,000 (Southern Biotechnology Associates, Inc., Birmingham, Ala.) was then added at 100 μl/well for one hour at room temperature (all wells were washed three times with PBS-Tween between each incubation step). TMB Membrane Peroxidase Substrate system (Kirkegaard & Perry Laboratories) was freshly mixed, and added at 100 μl/well. The color was allowed to develop for 2-5 minutes. The reaction was stopped by the addition of 100 μl/well of 1M phosphoric acid. Plates were read on a Microplate EL 310 Autoreader (Biotek Instruments, Winooski, Vt.) with a 450 nm filter. The absorbance levels of duplicate wells were averaged.

human IgE [2] = experiment: SDS/PAGE Western immunoblot of human IgE binding, plasma from patient #417; details: patient #417 plasma
Protocol: Western immunoblot analysis of the peptides produced in above was performed. The concentration of all protein samples (e.g., TRFP, recombinant chain 1 of TRFP, recombinant chain 2 of TRFP, peptide XYZ, peptide XZY, peptide YXZ, peptide YZX, peptide ZXY and peptide ZYX) for gel electrophoresis was determined by the BCA method (Pierce Co.). All protein samples were loaded on the gel at 5 μg/lane except TRFP at 10 μg/lane. Protein separation was carried out on a 15% acrylamide gel, and transfer was performed by electroblotting at 1.5 Amps for 1.5 hours onto nitrocellulose paper (Schleicher and Schuell, 0.1 microns) in a Hoeffer apparatus according to the protocol of Towbin, H., T. Stachlin, and J. Gordon, PNAS 76:4350 (1979). Proteins were rinsed in blot solution (25 mM Tris-HCl 7.5, 0.171 M NaCl and 0.5 ml/liter Tween 20). The blot was then blocked for one hour in blocking solution (1% milk in blot solution). Plasma from patient #417, used as a primary antibody source, was diluted in blocking solution to 10% and preabsorbed for 1.5 hours with unused nitrocellulose (2 cm×15 cm). The prepared human plasma was then incubated overnight on an orbital shaker with the protein blot section of interest. Following the first antibody incubation the blot section was washed three times, each wash involved a fifteen minute incubation in blot solution. The second antibody, specific for human IgE (biotinylated goat anti-human IgE, KPL Inc.), was diluted 1:2500 in blot solution and the incubation proceeded for two hours. Excess second antibody was subsequently removed by three 15 minute incubations with blot solution. ^125I Iodinated streptavidin (Amersham) was diluted 1:2500 in blot solution and incubated with blots for 1 hour, at 2 μCi in a 50 ml incubation volume. Blot sections were then washed with blot solution until the detectable radioactivity in the waste solution decreased to background levels. The blot section was then wrapped in saran wrap and exposed to film overnight with a cronex intensifying screen at −80° C.

IgE binding, ELISA (human IgE [1])	Substance	IgE binding, Western immunoblot (human IgE [2])
high level of IgE binding	TRFP: human T cell reactive feline protein affinity purified from house dust; two covalently linked chains	reactivity
somewhat lower binding	recombinant chain 1: recombinant TRFP chain 1 expressed in E. coli	strong IgE binding

From patent US7482008B1, “Human T cell reactive feline protein (TRFP) isolated from house dust and uses therefor” (Merck Patent GmbH, priority 1989, dated 2009)
